Measured values taken from ChEMBL document CHEMBL1201862, “PubChem BioAssay data set” (2004).
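Step 1: Grow cells in 96-well plates. Step 2: Expose to compound for 48 hours at 5 concentrations. Step 3: Interpolate endpoints linearly; if unreached, use highest concentration. GI50 is the concentration that inhibits growth by half.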 The source made the active and inactive calls. Rule as the data show it: active = GI50 up to about 1.1 µM and inactive = higher.

What was measured:
Assay in all cases: DTP human tumour cell line panel, 48 h
Hs-578T = tested on: Hs-578T
MDA-N = tested on: MDA-N
BT-549 = tested on: BT-549

| Compound | GI50 (Hs-578T) | GI50 (MDA-N) | GI50 (BT-549) |
| --- | --- | --- | --- |
| O=C(/C=C1\C[C@H]2C=Nc3ccccc3C(=O)N2C1)NCCCCCNC(=O)/C=C1\C[C@H]2C=Nc3ccccc3C(=O)N2C1 | 22.6 µM (inactive) | 7 µM (inactive) | 12.6 µM (inactive) |
| CCN(CC)CCCNc1nc(=O)[nH]c(C)c1C(=O)Nc1cccc2cc3ccccc3cc12 |  | > 100 µM (inactive) |  |
| Cc1c(/C=N\NC(=S)NCCNC(=S)N/N=C\c2c(C)n(C)n(-c3ccccc3)c2=O)c(=O)n(-c2ccccc2)n1C | > 100 µM (inactive) |  | > 100 µM (inactive) |
| COc1c(O)cc(O)c2c(=O)cc(-c3ccccc3)oc12 [WOGONIN] | 18.7 µM (inactive) | 84.7 µM (inactive) | 55.2 µM (inactive) |
| CN(C)c1ccc(/C=C/c2ccc3ccccc3[n+]2C)cc1 | 20.4 µM (inactive) | 2.03 µM (inactive) | 1.2 µM (inactive) |
| CN(C)CCNC1=Nc2ccccc2C(=S)N2CSCC12 (stereo not given) | > 100 µM (inactive) | > 100 µM (inactive) | > 100 µM (inactive) |
| CCOC(=O)C1c2[nH]c3ccccc3c2CCN1C(=O)c1ccc(OC)o1 (stereo not given) | > 10 µM (inactive) | > 10 µM (inactive) |  |
| CC(C(O)c1ccccc1)C(O)(C(F)(F)F)C(F)(F)F (stereo not given) | > 100 µM (inactive) | > 100 µM (inactive) |  |
| CCN(CC)C(=S)SS(=O)(=O)c1ccc(NC(C)=O)cc1 | 45 µM (inactive) | 27.6 µM (inactive) | 39.3 µM (inactive) |
| Cc1ccc(C2=Nc3cccc4cccc(c34)N2)cc1 | > 100 µM (inactive) | > 100 µM (inactive) | > 100 µM (inactive) |
| O=C(C[n+]1ccccc1)N/N=C(\C(=O)NC1=C(Cl)C(=O)c2ccccc2C1=O)c1c(O)c2ccc(O)cc2oc1=O |  |  | 5.14 µM (inactive) |
| CC1(c2cccc(Cl)c2)CC(c2cccc(Cl)c2)=C(C#N)C(=C(C#N)C#N)N1 (stereo not given) | 9.75 µM (inactive) | 20.1 µM (inactive) | 22.8 µM (inactive) |
| COc1ccc(C(C#N)NCCCCCCNC(C#N)c2ccc(OC)cc2)cc1 (stereo not given) | > 100 µM (inactive) | > 100 µM (inactive) | > 100 µM (inactive) |
| O=C(NCCCNCCN1C(=O)c2cccc3cc([N+](=O)[O-])cc(c23)C1=O)c1cc(-c2ccccc2)nc2ccccc12 | 3.41 µM (inactive) | 1.53 µM (inactive) | 6.15 µM (inactive) |
| O=C(c1ccccc1)C1C[C@H]2CO[C@H](c3ccccc3)N2C1=O (stereo not given in full) | > 100 µM (inactive) | > 100 µM (inactive) | > 100 µM (inactive) |
| Cc1ccc(C(=O)/C(C#N)=C/Nc2c(C)n(C)n(-c3ccccc3)c2=O)cc1 | > 100 µM (inactive) | > 100 µM (inactive) | > 100 µM (inactive) |
| CCNC(=S)N/N=C1\C(=O)Nc2ccc([N+](=O)[O-])cc21 | 98.9 µM (inactive) | > 100 µM (inactive) | > 100 µM (inactive) |
| CC(C)(C)NC(=O)CCC1C(C(=O)NC(C)(C)C)C2(Cl)C(Cl)=C(Cl)C1(Cl)C2(Cl)Cl (stereo not given) | > 100 µM (inactive) | > 100 µM (inactive) | > 100 µM (inactive) |
| O=C1C(Cl)=C(N2C(=O)CCCC2=O)C(=O)c2ccccc21 | 31.2 µM (inactive) | 17.2 µM (inactive) | 20.3 µM (inactive) |
| N#Cc1c(-c2ccccc2)cc(-c2ccccc2)n(C2OCC(O)C(O)C2O)c1=S (stereo not given) | 29.6 µM (inactive) | 17.3 µM (inactive) | 16.6 µM (inactive) |
| Cc1ccc(S(=O)(=O)NC(=O)Nc2ccc(C(=O)O)cc2)cc1 | > 100 µM (inactive) | > 100 µM (inactive) | > 100 µM (inactive) |
| COC(=O)/C(=C\C(=O)c1ccc(Br)cc1)NN=C(c1ccccc1)c1ccccc1 |  | > 10 µM (inactive) |  |
| CC(C)C(N)C(=O)NC(CCC(=O)NCCCCC(N)C(=O)NCCCNc1ccc([N+](=O)[O-])c2[nH]c3ccccc3c(=O)c12)C(N)=O (stereo not given) |  |  | 13.7 µM (inactive) |
| Cc1cc(C#N)c(Nc2c(C)cccc2[N+](=O)[O-])s1 |  | 97.7 µM (inactive) | 24.3 µM (inactive) |

| Compound | GI50 (Hs-578T) | GI50 (MDA-N) | GI50 (BT-549) |
| --- | --- | --- | --- |
| Clc1ccc(-c2nc(-c3ccc(Cl)cc3)[s+]s2)cc1 | 46.7 µM (inactive) | > 100 µM (inactive) | 72.9 µM (inactive) |
| O=CNNC(=O)CSc1nc2ccc(I)cc2c(=O)n1Cc1ccccc1 | 34 µM (inactive) | 32.3 µM (inactive) | 41.7 µM (inactive) |
| C#C[C@]1(O)CC[C@H]2[C@@H]3CCC4=C/C(=N\OCCN(CC)CC)CC[C@]4(C)[C@H]3CC[C@@]21C | 3.18 µM (inactive) | 2.18 µM (inactive) | 10 µM (inactive) |
| COC(=O)c1c2c(cc3c1CCC3)CCC2 | 35.8 µM (inactive) | 55.3 µM (inactive) | 95.9 µM (inactive) |
| COc1ccc2[nH]cc(CCNC(=O)[C@H](Cc3ccccc3)NC(=O)[C@@H](NCC(F)(F)F)C(C)C)c2c1 | 18.6 µM (inactive) | 18.2 µM (inactive) | 21.4 µM (inactive) |
| COc1cc2c(cc1OCCCCCCCCN1C(=O)c3cccc4cccc(c34)C1=O)N=C[C@@H]1CCCN1C2=O | 22.1 µM (inactive) |  | 12.6 µM (inactive) |
| C[N+](C)(CCNC(=O)c1cccc2cc3ccccc3nc12)Cc1ccc([N+](=O)[O-])s1 | > 25 µM (inactive) | > 25 µM (inactive) | > 25 µM (inactive) |
| COc1ccc2oc(=O)c(-c3cc4c(c(C)n3)c(=O)oc3ccc(OC)cc34)cc2c1 | 27.4 µM (inactive) | > 100 µM (inactive) | > 100 µM (inactive) |
| COC(=O)/C=C1/OC(c2ccccc2)=C(Br)C1=O |  | 42.1 µM (inactive) | 18.7 µM (inactive) |
| O=C1NCC2(CCNCC2)N1 | > 100 µM (inactive) |  |  |
| C/C(=N\N=C(/S)N(C)C)c1cccnn1 | > 66.4 µM (inactive) | 0.752 µM (active) | 0.869 µM (active) |
| COn1cc(CO)c2ccccc21 | > 68.7 µM (inactive) | 97.5 µM (inactive) | > 100 µM (inactive) |
| N=C(N)SCC(=O)O | > 100 µM (inactive) | > 100 µM (inactive) | > 100 µM (inactive) |
| COCCNc1cncc(C(N)=O)c1 | > 100 µM (inactive) | > 100 µM (inactive) | > 100 µM (inactive) |
| Cc1ccc(C(=O)Nc2ccc(S(=O)(=O)O)c3cc(S(=O)(=O)O)cc(S(=O)(=O)O)c23)cc1NC(=S)Nc1cc(C(=O)Nc2ccc(S(=O)(=O)O)c3cc(S(=O)(=O)O)cc(S(=O)(=O)O)c23)ccc1C |  | > 75 µM (inactive) | > 75 µM (inactive) |
| COC(=O)C(COC(C)=O)NC(=O)/C=C/c1ccc(O)c(OC(C)=O)c1 (stereo not given) | > 100 µM (inactive) | > 100 µM (inactive) | > 100 µM (inactive) |
| Cc1c(NC(=S)NN)c(=O)n(-c2ccccc2)n1C | 93.8 µM (inactive) | > 100 µM (inactive) | > 100 µM (inactive) |
| C=CCC1(C(=O)OC)CCC/C(=N\O)C1 (stereo not given) | > 10 µM (inactive) | > 10 µM (inactive) | > 10 µM (inactive) |
| CN(C)Cc1cc(/N=N/c2c(Cl)cccc2Cl)ccc1O | 40.9 µM (inactive) | > 100 µM (inactive) | 49 µM (inactive) |
| CC1=C[P+](c2ccccc2)(c2ccccc2)c2ccccc2O1 | 2.53 µM (inactive) |  | 10 µM (inactive) |
| OCC(O)C(O)C(O)C(/C=N\Nc1ncnc2ccc(Br)cc12)=N/Nc1ncnc2ccc(Br)cc12 (stereo not given) | > 100 µM (inactive) | 15.1 µM (inactive) |  |
| O=C(NNc1ccc([N+](=O)[O-])cc1[N+](=O)[O-])/C(O)=C\C(=O)c1ccccc1 |  | 27.9 µM (inactive) | 22.2 µM (inactive) |
| COc1cc(C2c3cc4c(cc3OC(NCCO)C2C)OCO4)cc(OC)c1O (stereo not given) |  | 1.61 µM (inactive) | 9.53 µM (inactive) |
